Reference: patent US20230183237A1, “COMPETITIVE AND NONCOMPETITIVE INHIBITORS OF THE MUSCARINIC ACETYLCHOLINE RECEPTOR M5” (Vanderbilt University, priority 2020, published 2023)
Where two headings read alike, the source gives them in different places.

Molecular target: T1, hM5 (Homo sapiens, UniProt P08912)
T1 construct: expressed in transfected cells
T1 sequence (P08912 1-532): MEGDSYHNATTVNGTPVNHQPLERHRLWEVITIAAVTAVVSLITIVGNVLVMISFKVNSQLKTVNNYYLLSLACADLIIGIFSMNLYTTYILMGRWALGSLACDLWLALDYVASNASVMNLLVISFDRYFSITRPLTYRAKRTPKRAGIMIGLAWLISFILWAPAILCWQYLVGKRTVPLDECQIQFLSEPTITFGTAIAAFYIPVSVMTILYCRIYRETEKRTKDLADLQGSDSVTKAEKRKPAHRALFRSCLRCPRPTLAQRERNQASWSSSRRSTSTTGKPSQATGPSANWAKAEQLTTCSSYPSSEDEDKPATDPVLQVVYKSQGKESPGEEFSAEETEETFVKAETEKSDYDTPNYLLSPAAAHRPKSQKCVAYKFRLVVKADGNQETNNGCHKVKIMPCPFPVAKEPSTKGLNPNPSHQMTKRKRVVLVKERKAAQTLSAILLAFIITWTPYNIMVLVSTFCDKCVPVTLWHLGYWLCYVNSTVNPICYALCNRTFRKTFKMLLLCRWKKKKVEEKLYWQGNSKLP
Experiment: Calcium mobilization concentration-response (IC50 vs EC80 acetylcholine), CHO hM5
Format: cell-based
Details: CELL LINE hM5, read-out: IC50
Method: Initial, single point (10 μM) compound characterization was performed in stable Chinese Hamster Ovary (CHO) cell lines constitutively expressing human M5 receptors. These were plated at 15,000 cells per 20 μL per well in Greiner 384-well black-walled, TC-treated, clear-bottomed plates (Fisher) in Ham's F12 medium supplemented with 10% FBS and 20 mM HEPES. Cells were incubated overnight at 37° C. under 5% CO2. The following day, medium was exchanged with assay buffer (Hank's Balanced Salt Solution supplemented with 20 mM HEPES and 2.5 mM Probenecid, pH 7.4) leaving 20 μL of assay buffer in each well. […] The cells were then incubated 50 minutes at 37° C. under 5% CO2. The assay buffer plus dye was then exchanged with fresh assay buffer leaving a volume of 20 μL in each well. Test compounds were diluted into assay buffer to a 2X (20 μM) concentration in 0.2% dimethylsulfoxide (DMSO) in columns 3-22 with matching DMSO concentration in columns 1, 2, 23, and […]; compounds were added to the assay for a final concentration of 10 μM and a final DMSO concentration of 0.1%.
Either an FDSS (Hamamatsu) or Panoptic (WaveFront Biosciences) kinetic imaging plate reader was used for assay execution and measurement of calcium flux. After establishing baseline fluorescence, test compounds (20 μL) were added to the cells using the reader's integrated pipettor and allowed to equilibrate for 140 seconds before addition of the […] concentration of acetylcholine (10 μL) along with vehicle in selected DMSO-only wells in the outer two columns . […] The raw fluorescence data from each well was normalized to the corresponding initial fluorescence reading (static ratio). The maximum fluorescence value following each addition was determined and the minimum value within that same timeframe was subtracted for each well then normalized to the average of the ECffiax maximum-minimum response, providing a % AChmax value for each addition for each well. The single point values represent mean values determined within the ECsu addition timeframe obtained from at least three independent determinations performed in triplicate or greater (error bars represent +/−SEM) unless otherwise specified.
CHO cells stably expressing hM1, hM2/Gqi5, hM3, hM4/Gqi5, hM5, rM1/Gqi5, rM3, rM4/Gqi5, or rM5 were plated in the manner described above. […] FDSS protocols were carried out as described above; the static ratio was calculated and the minimum response subtracted from the maximum response within the timeframe of each addition. This max-min response was then normalized to the maximum acetylcholine response. Calculation of IC50 was performed using the percent maximum acetylcholine response for the EC80 addition through the Vortex and Studies modules of the Dotmatics data management software. Results are stored in the Dotrnatics database and an audit trail of any changes to their analysis is generated. Data shown represent mean values obtained from at least three independent determinations performed in triplicate or greater (error bars represent±SEM) unless otherwise specified.

[1] = calcium mobilization, EC80 acetylcholine addition

IC50 (vs EC80 acetylcholine)	IC50 [1]	SMILES
784 nM		[2H]C1([2H])CC(c2cn3ncnc3cc2C(F)F)CC([2H])([2H])N1S(=O)(=O)c1cn(C)nn1 [Compound 595, 7-(difluoromethyl)-6-(1-((1-methyl-1H-1,2,3-triazol-4-yl)sulfonyl)piperidin-4-yl-2,2,6,6-d4)-[1,2,4]triazolo[1,5-a]pyridine]
	2100 nM	Cc1nc2cc(C)c(C3CCN(S(=O)(=O)c4ccc5c(c4)C(C)CO5)CC3)cn2n1 (centres unmarked) [Compound 89, 2,7-dimethyl-6-(1-((3-methyl-2,3-dihydrobenzofuran-5-yl)sulfonyl)piperidin-4-yl)-[1,2,4]triazolo[1,5-a]pyridine]
1980 nM		[2H]C([2H])([2H])Oc1c(S(=O)(=O)N2CCC(c3nn4ncnc4cc3C)CC2)cnn1C [Compound 617, 6-(1-((5-(methoxy-d3)-1-methyl-1H-pyrazol-4-yl)sulfonyl)piperidin-4-yl)-7-methyl-[1,2,4]triazolo[1,5-b]pyridazine]
	2600 nM	CCc1cc2ncnn2cc1C1CCN(S(=O)(=O)c2cnn(C)c2C(F)(F)F)CC1 [Compound 331, 7-ethyl-6-(1-((1-methyl-5-(trifluoromethyl)-1H-pyrazol-4-yl)sulfonyl)piperidin-4-yl)-[1,2,4]triazolo[1,5-a]pyridine]
1700 nM		O=S(=O)(c1cnc(Cl)s1)N1CCC(c2cn3ncnc3cc2C(F)F)CC1 [Compound 516, 2-chloro-5-((4-(7-(difluoromethyl)-[1,2,4]triazolo[1,5-a]pyridin-6-yl)piperidin-1-yl)sulfonyl)thiazole]
	> 10000 nM	O=S(=O)(c1cnn2c1OCCC2)N1CCC(c2ccncc2)CC1 [Compound 367, 3-((4-(pyridin-4-yl)piperidin-1-yl)sulfonyl)-6,7-dihydro-5H-pyrazolo[5,1-b][1,3]oxazine]
	5760 nM	Cc1ccncc1C1CCN(S(=O)(=O)c2cnn(C)c2C)CC1 [Compound 384, 3-(1-((1,5-dimethyl-1H-pyrazol-4-yl)sulfonyl)piperidin-4-yl)-4-methylpyridine]
> 10000 nM		CC(=O)NCc1c(S(=O)(=O)N2CCC(c3cn4ncnc4cc3C)CC2)cnn1C [Compound 543, N-((1-methyl-4-((4-(7-methyl-[1,2,4]triazolo[1,5-a]pyridin-6-yl)piperidin-1-yl)sulfonyl)-1H-pyrazol-5-yl)methyl)acetamide]
5240 nM		Cc1cc2ncnn2cc1C1CCN(S(=O)(=O)c2scnc2C)CC1 [Compound 601, 4-methyl-5-((4-(7-methyl-[1,2,4]triazolo[1,5-a]pyridin-6-yl)piperidin-1-yl)sulfonyl)thiazole]
	2100 nM	Cc1nn(C)c(C(F)(F)F)c1S(=O)(=O)N1CCC(c2cn3ncnc3cc2F)CC1 [Compound 227, 6-(1-((1,3-dimethyl-5-(trifluoromethyl)-1H-pyrazol-4-yl)sulfonyl)piperidin-4-yl)-7-fluoro-[1,2,4]triazolo[1,5-a]pyridine]
> 10000 nM		Cc1nnc(S(=O)(=O)N2CCC(c3cn4ncnc4cc3Cl)CC2)[nH]1 [Compound 599, 7-chloro-6-(1-((5-methyl-4H-1,2,4-triazol-3-yl)sulfonyl)piperidin-4-yl)-[1,2,4]triazolo[1,5-a]pyridine]
	> 10000 nM	Cc1cc2ncnn2cc1C1CCN(S(=O)(=O)c2ccc3c(c2)CCO3)C1 (centres unmarked) [Compound 126, 6-(1-((2,3-dihydrobenzofuran-5-yl)sulfonyl)pyrrolidin-3-yl)-7-methyl-[1,2,4]triazolo[1,5-a]pyridine]
113 nM		Cc1cc2nccn2nc1N1CCN(S(=O)(=O)c2cnc(C)n2C)CC1 [Compound 436, 6-(4-((1,2-dimethyl-1H-imidazol-5-yl)sulfonyl)piperazin-1-yl)-7-methylimidazo[1,2-b]pyridazine]
	> 10000 nM	[2H]C1([2H])Oc2cc(C)c(C3CCN(S(=O)(=O)c4cnc(C)s4)CC3)cc2OC1([2H])[2H] [Compound 392, 2-methyl-5-((4-(7-methyl-2,3-dihydrobenzo[b][1,4]dioxin-6-yl-2,2,3,3-d4)piperidin-1-yl)sulfonyl)thiazole]
19 nM		COc1c(S(=O)(=O)N2CCC(c3cn4ncnc4c(F)c3C)CC2)cnn1C [Compound 576, 8-fluoro-6-(1-((5-methoxy-1-methyl-1H-pyrazol-4-yl)sulfonyl)piperidin-4-yl)-7-methyl-[1,2,4]triazolo[1,5-a]pyridine]
	66 nM	Cc1cc2ncnn2nc1C1CCN(S(=O)(=O)c2c(C)nn(C)c2Cl)CC1 [Compound 179, 6-(1-((5-chloro-1,3-dimethyl-1H-pyrazol-4-yl)sulfonyl)piperidin-4-yl)-7-methyl-[1,2,4]triazolo[1,5-b]pyridazine]
47 nM		[2H]C1([2H])CC(c2cn3ncnc3cc2C)CC([2H])([2H])N1S(=O)(=O)c1cnc(C)o1 [Compound 568, 2-methyl-5-((4-(7-methyl-[1,2,4]triazolo[1,5-a]pyridin-6-yl)piperidin-1-yl-2,2,6,6-d4)sulfonyl)oxazole]
	1290 nM	Cc1cc(C(F)(F)F)ncc1C1CCN(S(=O)(=O)c2cnn(C)c2Cl)CC1 [Compound 395, 5-(1-((5-chloro-1-methyl-1H-pyrazol-4-yl)sulfonyl)piperidin-4-yl)-4-methyl-2-(triflu0romethyl)pyridine]
	1300 nM	Cc1nc2cc(C)c(C3CCN(S(=O)(=O)c4cc5c(cc4C)OCC5C)CC3)cn2n1 (centres unmarked) [Compound 87]
	26 nM	O=S(=O)(c1cnn2c1CCC2)N1CCC(c2cn3ncnc3cc2F)CC1 [Compound 232, 6-(1-((5,6-dihydro-4H-pyrrolo[1,2-b]pyrazol-3-yl)sulfonyl)piperidin-4-yl)-7-fluoro-[1,2,4]triazolo[1,5-a]pyridine]
1150 nM		Cn1ncc(S(=O)(=O)N2CCC(F)(c3cn4ncnc4cc3F)CC2)c1C#N [Compound 503, 4-((4-fluoro-4-(7-fluoro-[1,2,4]triazolo[1,5-a]pyridin-6-yl)piperidin-1-yl)sulfonyl)-1-methyl-1H-pyrazole-5-carbonitrile]
	1300 nM	[2H]C([2H])([2H])n1cc(S(=O)(=O)N2CCC(c3cn4ncnc4cc3C)CC2)c(C2CC2)n1 [Compound 132, 6-(1-((3-cyclopropyl-1-(methyl-d3)-1H-pyrazol-4-yl)sulfonyl)piperidin-4-yl)-7-methyl-[1,2,4]triazolo[1,5-a]pyridine]
754 nM		Cc1cc2ncnn2cc1C1(F)CCN(S(=O)(=O)c2cnn3cccnc23)CC1 [Compound 458, 6-(4-fluoro-1-(pyrazolo[1,5-a]pyrimidin-3-ylsulfonyl)piperidin-4-yl)-7-methyl-[1,2,4]triazolo[1,5-a]pyridine]
	1400 nM	Cc1cc2ncnn2cc1C1CCN(S(=O)(=O)c2cnc3c(c2)CCO3)CC1 [Compound 141, 5-((4-(7-methyl-[1,2,4]triazolo[1,5-a]pyridin-6-yl)piperidin-1-yl)sulfonyl)-2,3-dihydrofuro[2,3-b]pyridine]
	> 10000 nM	Cc1cc2ncnn2nc1C1CCN(S(=O)(=O)c2cc3c(cc2F)OCC3)CC1 [Compound 181, 6-(1-((6-fluoro-2,3-dihydrobenzofuran-5-yl)sulfonyl)piperidin-4-yl)-7-methyl-[1,2,4]triazolo[1,5-b]pyridazine]
	699 nM	[2H]C1([2H])Oc2ccc(S(=O)(=O)N3CC=C(c4cn5ncnc5cc4C)CC3)cc2C1([2H])[2H] [Compound 72, 6-(1-((2,3-dihydrobenzofuran-5-yl-2,2,3,3-d4)sulfonyl)-1,2,3,6-tetrahydropyridin-4-yl)-7-methyl-[1,2,4]triazolo[1,5-a]pyridine]
